One series deals with MDA435/LCC6W cells. The experiment in a line: Viable cell count, Rh2 with paclitaxel, wild-type breast cancer cells. The class given is cell-based. The conditions noted are these: Homo sapiens, L6W (wild-type MDA435/LCC6W).
The subject of series [1] is MDA435/LCC6M cells. The series is described as follows: Viable cell count, Rh2 with paclitaxel, multidrug resistant breast cancer cells expressing P-glycoprotein. The conditions noted are these: for IC50: Homo sapiens, MDA435, 24 h.
Experimental: (§1) Human breast cancer cells MDA435/LCC6 cells, both wild-type (MDA435/LCC6W) or a drug resistant strain expressing a transfected multidrug resistant gene encoding P-glycoprotein (MDA435/LCC6M), were incubated with 20 μg/ml or 30 μg/ml of Rh2 in the presence of paclitaxel at various concentrations. Viable cells were counted 24 hrs after treatment.
The test system of series [2] is MDA435/LCC6M cells.
Experimental: as §1
The subject of series [3] is human prostate cancer cells LNCaP. The series is described as follows: Cytotoxicity of Rh2 with mitoxantrone or paclitaxel, cellular viability of LNCaP cells. Type of series: cell-based. An excerpt:
In one aspect, the invention provides therapeutically synergistic effects of Rh2 with chemotherapeutic compounds.

Series [4] deals with Mesothelioma cells (MS-1 cells). The series is described as follows: Viability of non-Pgp multidrug resistant mesothelioma cells, Rh2 with cisplatin or paclitaxel. Type of series: cell-based.

Where two headings read alike, the source gives them in different places.

Here are results for 2 compounds from patent US6759397B2, “Ginsenoside chemotherapy” (The University of British Columbia, priority 2000, dated 2004).

Experimental for MDA435/LCC6W cells: as §1

Consider `CC(=O)O[C@H]1C(=O)[C@@]2(C)[C@H]([C@H](OC(=O)c3ccccc3)[C@]3(O)C[C@H](OC(=O)[C@H](O)[C@@H](NC(=O)c4ccccc4)c4ccccc4)C(C)=C1C3(C)C)[C@]1(OC(C)=O)CO[C@@H]1C[C@@H]2O` [Paclitaxel], for which the IC50 is 248 nM in the series with MDA435/LCC6W cells (no Rh2, viable cells counted 24 hrs after treatment, read-out: Calculated IC50 of paclitaxel, Paclitaxel alone); 75 nM with MDA435/LCC6W cells (with 20 μg/ml Rh2, 24 hrs, read-out: Calculated IC50 of paclitaxel, Pac. + 20 μg/ml Rh2); 25 nM in the series with MDA435/LCC6W cells (with 30 μg/ml Rh2, 24 hrs, read-out: Calculated IC50 of paclitaxel, Pac. + 30 μg/ml Rh2); 0.15 nM with MDA435/LCC6M cells [1] (read-out: Calculated IC50 of paclitaxel, Pac. + 20 μg/ml Rh2); under 0.03 nM with MDA435/LCC6M cells [1] (read-out: Calculated IC50 of paclitaxel, Pac. + 30 μg/ml Rh2); 631 nM in the series with MDA435/LCC6M cells [1] (read-out: Calculated IC50 of paclitaxel, Paclitaxel alone). In the series with MDA435/LCC6M cells [1] (MDA435/LCC6M, with Rh2, as low as), the “Paclitaxel concentration at which cytotoxicity was shown in the presence of Rh2” value was determined as 0.1 nM.

Turning to `CC(C)=CCC[C@](C)(O)[C@H]1CC[C@]2(C)[C@@H]1[C@H](O)C[C@@H]1[C@@]3(C)CC[C@H](O[C@@H]4O[C@H](CO)[C@@H](O)[C@H](O)[C@H]4O)C(C)(C)[C@@H]3CC[C@]12C` [Rh2], the “Effect of Rh2 on cytotoxicity of paclitaxel” value in the series on MDA435/LCC6M cells [2] was “unexpectedly and significantly enhanced by Rh2”; in series [3] (20 μg/ml Rh2, particularly 0.1 nM and 1 nM paclitaxel, LNCaP) it was “added significantly to the cytotoxicity of paclitaxel”. Also, the “Cytotoxicity of Rh2 alone” value in series [3] (20 μg/ml Rh2, LNCaP) is on record as “little or no significant cytotoxicity alone”. Besides, the “Effect of Rh2 on cytotoxicity of mitoxantrone” value in series [3] (20 μg/ml Rh2, wide range of mitoxantrone concentrations, LNCaP) is reported as “added significantly to the cytotoxicity of mitoxatron”. Further, the “Effect of Rh2 alone on the cells” value in the series with MDA435/LCC6M cells [1] (MDA435/LCC6M, 20 or 30 μg/ml Rh2, 24 hrs) is on record as “little or no effect on the cells”. Besides, the “Synergistic effect of Rh2 with cisplatin” value in series [4] (20 μg/ml Rh2, various cisplatin concentrations) is on record as “significant”. Further, the “Synergistic effect of Rh2 with paclitaxel” value in series [4] (20 μg/ml Rh2, various paclitaxel concentrations) is listed as “significant”.
